According to patent publication US8669054B2, “Marker for gastric cancer and method for detecting gastric cancer” (The Chinese University of Hong Kong, priority 2010, dated 2014):

Tested on: PAX5 gene expression in methylated GC and CRC cell lines
Assay: Demethylation treatment with 5-Aza; PAX5 expression by semiquantitative RT-PCR
Type: cell-based, human
Settings: 2 μM 5-Aza for 5 days; AGS, MKN28, KatoIII, HCT116, SW620 and SW480
Experimental: Semiquantitative RT-PCR was performed in a total volume of 25 μL reaction containing GeneAmp 1×PCR Buffer II (Applied Biosystems), 2.5 mM MgCl2, 200 μM each of dNTP, 200 nM each of primers, 0.5 U of AmpliTaq Gold DNA polymerase (Applied Biosystems) and 30˜50 ng cDNA. […] The PCR bands were visualized under ultraviolet light and photographed. The expression of the target gene was normalized by the expression of house keeping gene β-actin, which served as an internal control. […] Cells were then treated with 2 μM 5-aza-2′-deoxycytidine (“5-Aza”) (Sigma-Aldrich) for 5 days. The 5-Aza was replenished every day.

Nc1ncn([C@H]2C[C@H](O)[C@@H](CO)O2)c(=O)n1 [5-Aza, 5-aza-2′-deoxycytidine]
PAX5 gene expression after 5-Aza demethylation treatment (RT-PCR): restore expression
